Earlier results, collected in patent publication US11691145B2, “Platform and method for multi-variable screening” (Wisconsin Alumni Research Foundation, priority 2018, dated 2023).

Tested on: bacterial pathogens (infection)
Conditions: phase 3 clinical trial

CO/N=C(\C(=O)N[C@@H]1C(=O)N2C(C(=O)O)=C(COC(C)=O)CS[C@H]12)c1csc(N)n1 [cefotaxime]
patients who responded to the antibiotic therapy (patients with a "resistant" antibiotic sensitivity test result): 64%
patients who would respond to the antibiotic therapy (patients with a "sensitive" antibiotic sensitivity test result, best case scenario): 93%
